Data published in article PMC10286459 (Cell & Bioscience, 2023).
Non-standard residues stand in square brackets, D forms with d. Residues, ends and D or L forms follow the SMILES beside them.

How the values were obtained:
full-length FOXM1 = target: T1, full-length FOXM1 (Homo sapiens, UniProt Q08050); test: Biotin-peptide Pulldown with Streptavidin Magnetic Beads; type: binding; conditions: biotin-labeled peptide, cell lysates (500 µg) with endogenous or exogenous FOXM1; Western Blotting
T1 sequence (Q08050 703-763 limits assumed): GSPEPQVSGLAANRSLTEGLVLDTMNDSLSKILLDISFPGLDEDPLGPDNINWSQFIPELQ
Experimental: SDS-PAGE gel electrophoresis and Coomassie brilliant blue staining were performed to measure peptide stability. […] Cells were collected at different post-treatment time points (0, 1, 2, 4, 8, 16, 24, 36, 48 h). […] D The docking of peptide P22 (106–126) to the FOXM1 C-terminus (PDB ID 6OSW) was created by Rosetta FlexPepDock and PyMOL. Left, the interface of peptide-protein interaction, the peptide was shown in cyan, and the C-terminus of FOXM1 was shown according to its electrostatic potential. Right, hydrogen bonds are formed by residues at the interface of peptide and protein interaction. […] Streptavidin magnetic beads were added to lysates to pull down the biotin-peptides/protein complexes. […] M1-21mut was used as the control.

mouse erythrocytes = test: Hemolysis assay; conditions: 800 µg/mL, mouse blood 10% (v/v) in normal saline, 37℃ for 3 h, absorbance 540 nm
Experimental: (§1) One week later, the animals’ different organs were harvested and subjected to tissue sectioning and H&E staining. Photos were taken by inverted microscope (400×, Nikon TE2000). […] The mice’s diet and activity were observed continuously for 14 days. […] Water and PBS were used as hemolysis positive and negative controls, respectively. The absorbance of the samples was measured at 540 nm and used to calculate the Hemolysis rate % = [(OD Sample - OD Negative) / (OD Positive - OD Negative)] × 100%. E Immunogenicity analysis of M1-21. […] Blood samples were collected from mice at different time points (Week 2 to Week 8) and the absorption of anti-M1-21 antibody in serum (1:1000 dilution) was measured by ELISA. HRP-conjugated anti-mouse IgG was used as an ELISA secondary antibody.
(§2) Hemolysis assays were performed with fresh mouse blood collected and dispersed in normal saline (NaCl 0.9%) at 10% (v/v). […] Sterile double distilled water and PBS were used as positive and negative controls, respectively. Immunogenicity of M1-21 was detected by ELISA in mice. […] Blood samples were collected from mice at different time points (Week 2 to Week 8). […] ELISA plates were washed twice with PBS and blocked with 3% bovine serum albumin for 2 h. […] Absorption was measured at 492 nm.

[1] = test system: MDA-MB-231 engrafted tumors; test: MDA-MB-231 tumor-engrafted BALB/c nude mice
TCF/LEF-binding promoter = test: Dual luciferase reporter, TCF/LEF-binding promoter; conditions: HEK-293T; 5, 10, 20 µM for 24 h; n = 3
β-catenin = β-catenin levels in cytosol and nuclear protein samples; conditions: MDA-MB-231, 20 µM for 6 h; Western blotting
[2] = test system: − 1.4 kb promoter of PLK1; test: Dual luciferase reporter, CHR-containing promoter; conditions: HEK-293T, PLK1 pro(-1.4 kb)-Luc with pCMV-FOXM1; 5, 10, 20 µM for 24 h; n = 3
MDA-MB-231 cells = test: Colony formation assay; conditions: MDA-MB-231, 200 cells/well, 20 µM, 14 days; versus M1-21mut
[3] = target: truncated FOXM1 recombinant proteins tagged by GST (Homo sapiens, UniProt Q08050); test: Pulldown of GST-tagged truncated FOXM1 recombinant proteins; conditions: Biotin-M1-21 20 µM, recombinant protein 100 µg; Ponceau S
[4] = target: truncated FOXM1 recombinant proteins tagged by GST (Homo sapiens, UniProt Q08050); test: as above; conditions: Biotin-M1-21 20 µM, recombinant protein 100 µg; Ponceau S; remark: listed apart in the source
[5] = target: truncated FOXM1 recombinant proteins tagged by GST (Homo sapiens, UniProt Q08050); test: as above; conditions: Biotin-M1-21 20 µM, recombinant protein 100 µg; Ponceau S; remark: listed apart in the source
[6] = test system: spontaneous breast cancers; test: Spontaneous breast cancer FVB/N MMTV-PyVT mice
[7] = target: T2, interaction between FOXM1 and PLK1 (Homo sapiens, UniProt Q08050); test: Co-IP in 231-Flag-FOXM1-Ind cells; type: cell-based; conditions: doxycycline 200 ng/mL 24 h, M1-21 10, 20 µM or TAT-106-126 20, 40, 80 µM for 6 h
T2 construct: expressed in transfected cells; host or cells: MDA-MB-231 stably infected with pLVX-TetOne-Flag-FOXM1b lentivirus (231-Flag-FOXM1-Ind), doxycycline-induced
Description: Number of repetitions = 3. […] Number of repetitions = 3. […] Number of repetitions = 3. […] GAPDH was used as a loading control.

[8] = H&E staining of organs after repeated injection; type: in vivo, mouse; conditions: ICR/JCL mice, 30 mg/kg intraperitoneal once every two days for three weeks
Experimental: as §1

MCF-10A cells = conditions: 0-50 µM, 72 h, trypan blue, Fig. S11
[9] = Immunogenicity, ELISA of anti-M1-21 antibodies in serum; type: in vivo, mouse; conditions: ICR/JCL mice, 30 mg/kg/week × 4 weeks I.P., serum Week 2 to Week 8, 1:1000, ELISA 492 nm; except at Week 4
Experimental: as §1, §2

[10] = test system: FOXM1-binding promoters (6xFOXM1 binding sequence-containing promoter, − 1.8 kb promoter of CDC25B); test: Dual luciferase reporter, FOXM1-binding promoters; conditions: HEK-293T, cotransfection with pCMV-FOXM1; M1-21 5, 10, 20 µM for 24 h; n = 3
[11] = target: interaction between FOXM1 and β-catenin (Homo sapiens, UniProt Q08050); test: Co-IP in 231-Flag-FOXM1-Ind cells; conditions: 10, 20 µM for 6 h
mouse Foxm1 = target: T3, mouse Foxm1 (Mus musculus, UniProt O08696); test: Biotin-peptide Pulldown in 4T1 cell lysates; type: binding; conditions: biotin-labeled, 20 µM, 4T1 cell lysates (500 µg); Fig. S18B
T3 construct: endogenous in cells; host or cells: 4T1 mouse breast cancer cell lysate

[12] = 20 mg/kg intraperitoneal once daily for 28 days, Day 29

Sequence of interaction between FOXM1 and β-catenin (Q08050 1-748 isoform Q08050-2): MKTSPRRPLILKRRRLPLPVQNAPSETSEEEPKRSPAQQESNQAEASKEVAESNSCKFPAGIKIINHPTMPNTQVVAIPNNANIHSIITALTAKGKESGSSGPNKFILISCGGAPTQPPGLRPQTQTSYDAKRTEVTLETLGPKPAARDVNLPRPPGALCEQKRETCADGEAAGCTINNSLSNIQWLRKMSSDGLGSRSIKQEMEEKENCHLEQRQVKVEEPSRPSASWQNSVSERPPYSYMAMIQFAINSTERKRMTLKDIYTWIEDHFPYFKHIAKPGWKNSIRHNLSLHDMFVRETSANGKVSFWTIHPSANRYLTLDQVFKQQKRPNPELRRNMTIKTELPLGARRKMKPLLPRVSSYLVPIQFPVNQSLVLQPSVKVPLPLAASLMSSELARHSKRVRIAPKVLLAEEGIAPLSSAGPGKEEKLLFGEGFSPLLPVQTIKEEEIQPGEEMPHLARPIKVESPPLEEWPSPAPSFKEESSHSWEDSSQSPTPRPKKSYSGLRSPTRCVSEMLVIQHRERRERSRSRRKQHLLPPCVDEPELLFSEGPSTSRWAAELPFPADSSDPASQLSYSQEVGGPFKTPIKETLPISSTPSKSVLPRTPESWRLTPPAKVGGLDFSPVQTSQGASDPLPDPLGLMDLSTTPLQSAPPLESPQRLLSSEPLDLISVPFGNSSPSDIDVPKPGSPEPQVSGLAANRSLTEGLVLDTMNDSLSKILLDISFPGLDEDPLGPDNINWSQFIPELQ
T2 sequence (Q08050 1-748 isoform Q08050-2): as above
T3 sequence (O08696 whole entry): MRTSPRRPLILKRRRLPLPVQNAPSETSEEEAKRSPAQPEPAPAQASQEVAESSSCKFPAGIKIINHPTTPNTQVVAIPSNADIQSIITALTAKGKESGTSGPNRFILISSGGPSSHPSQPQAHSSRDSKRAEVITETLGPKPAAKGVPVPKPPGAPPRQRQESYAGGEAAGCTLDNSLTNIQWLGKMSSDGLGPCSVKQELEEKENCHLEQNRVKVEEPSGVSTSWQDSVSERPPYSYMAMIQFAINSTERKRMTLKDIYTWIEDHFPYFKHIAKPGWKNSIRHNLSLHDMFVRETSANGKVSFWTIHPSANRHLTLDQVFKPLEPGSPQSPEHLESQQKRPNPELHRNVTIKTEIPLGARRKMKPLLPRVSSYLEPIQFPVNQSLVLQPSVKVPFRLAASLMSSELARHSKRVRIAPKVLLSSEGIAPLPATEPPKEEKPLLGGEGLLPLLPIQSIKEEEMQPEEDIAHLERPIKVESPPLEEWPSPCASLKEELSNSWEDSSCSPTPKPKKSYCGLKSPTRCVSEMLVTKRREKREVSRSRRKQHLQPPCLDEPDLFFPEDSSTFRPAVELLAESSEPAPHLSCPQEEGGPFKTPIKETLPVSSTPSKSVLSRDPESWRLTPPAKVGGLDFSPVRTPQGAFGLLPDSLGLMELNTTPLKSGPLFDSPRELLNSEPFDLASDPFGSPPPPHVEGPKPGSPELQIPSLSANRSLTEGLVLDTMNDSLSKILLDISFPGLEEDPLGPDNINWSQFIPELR

CC[C@@H](C)[C@@H](NC(=O)[C@@H](CC(C)C)NC(=O)[C@H](NC(=O)[C@@H](CO)NC(=O)[C@@H](CS)NC(=O)CNC(=O)CNC(=O)[C@@H](C)NC(=O)[C@H]1CCCN1C(=O)[C@H](NC(=O)[C@@H](CCC(N)=O)NC(=O)[C@H]1CCCN1C(=O)[C@H]1CCCN1C(=O)CNC(=O)[C@@H](CC(C)C)NC(=O)[C@@H](CCCNC(=N)N)NC(=O)[C@H]1CCCN1C(=O)[C@@H](CCC(N)=O)NC(=O)[C@H](NC(=O)[C@H](N)CCC(N)=O)[C@H](C)O)[C@H](C)O)[C@H](C)CC)C(=O)N[C@H](Cc1ccccc1)C(=O)N[C@H](CCCNC(=N)N)C(=O)N[C@H](CCCNC(=N)N)C(=O)N[C@H](CCCNC(=N)N)C(=O)N[C@H](CCC(N)=O)C(=O)N[C@H](CCCNC(=N)N)C(=O)N[C@H](CCCNC(=N)N)C(=O)N[C@H](CCCCN)C(=O)N[C@H](CCCCN)C(=O)N[C@H](CCCNC(=N)N)C(=O)NCC(=O)O [M1-21] (H-[dQ][dT][dQ][dP][dR][dL]G[dP][dP][dQ][dT][dP][dA]GG[dC][dS][dI][dL][dI][dF][dR][dR][dR][dQ][dR][dR][dK][dK][dR]G-OH; N-terminus and C-terminus assumed)
binding to full-length FOXM1 in Pulldown (full-length FOXM1): bound | hemolysis to erythrocytes (mouse erythrocytes): very mild hemolysis | size and weight of engrafted tumors at the end of the experiment ([1]; BALB/c nude mice, 30 mg/kg intraperitoneal once every two days, Day 19, n = 6): significantly decreased | growth of engrafted tumors (tumor volume) ([1]; BALB/c nude mice, 30 mg/kg intraperitoneal once every two days, n = 6, versus PBS): growth inhibition of engrafted tumors | levels of FOXM1, CDC25B and PLK1 in tumor samples ([1]; Western blotting of harvested cancer tissues, Fig. S12B): decreased levels | β-catenin-mediated stimulation on the TCF/LEF-binding promoter (luciferase) (TCF/LEF-binding promoter): abolished β-catenin-mediated stimulation | β-catenin levels in cytoplasm and nucleus (β-catenin): elevated levels of β-catenin in the cytoplasm and declined levels of β-catenin in the nucleus | FOXM1-MuvB-mediated stimulation on the CHR-containing promoter (luciferase) [2]: abolished FOXM1-MuvB-mediated stimulation | colony formation (MDA-MB-231 cells): inhibitory effects | binding to GST-FOXM1_1-138 in Pulldown [3]: bound | binding to GST-FOXM1_221-353 in Pulldown [4]: bound | binding to GST-FOXM1_688-748 in Pulldown [5]: bound | mice with therapeutic benefit, of the seven treated [6, 12]: six mice had obvious therapeutic benefits and even one mouse was cancer-free | weight of total cancer tissue from each mouse [6, 12]: inhibited cancer progression | number of formed cancers ([6]; 20 mg/kg intraperitoneal once daily for 28 days, n = 7, versus PBS n = 4): dramatically decreased | levels of KI-67 and CDC25B in cancer sections (immunostaining) ([6]; 20 mg/kg once daily for 28 days): dramatically down-regulated | interaction between FOXM1 and PLK1 (Co-IP) [7]: disrupted the interaction | morphological lesions in heart, liver, spleen, lung, and kidney (H&E) [8]: no obvious morphological lesions | inhibition of normal breast epithelial cells, in words (MCF-10A cells): did not inhibit | M1-21-specific antibody generation in serum [9]: relatively low levels | FOXM1-mediated stimulation on FOXM1-binding promoters (luciferase) [10]: abrogated FOXM1-mediated stimulation | interaction between FOXM1 and β-catenin (Co-IP) [11]: disrupted the interaction | binding to endogenous mouse Foxm1 in Pulldown (mouse Foxm1): could bind
